# From patent US10039753B2, “Imidazo[4,5-c]quinoline and imidazo[4,5-c][1,5]naphthyridine derivatives as LRRK2 inhibitors” (Pfizer Inc., priority 2015, dated 2018)
# Counter-ions that a name gives are not always drawn.
# Assays:
# [1] = target: T1, mutant G2019S LRRK2 (Homo sapiens, UniProt Q5S007, G2019S); experiment: LRRK2 Assay, Format 1 (Lantha Screen), G2019S mutant
# [2] = target: T1, mutant G2019S LRRK2; experiment: LRRK2 Assay, Format 2 (Lantha Screen), G2019S mutant; format: biochemical; set-up: purchased Invitrogen PV4881; settings: geometric mean of 2-4 determinations unless otherwise indicated (a: >=5; b: single determination); read-out: LRRK2, Format 2 G2019S IC50
# [3] = target: T2, GST-tagged truncated LRRK2 (Homo sapiens, UniProt Q5S007); experiment: LRRK2 Assay, Format 2 (Lantha Screen), WT; format: biochemical; settings: geometric mean of 2-4 determinations unless otherwise indicated (a: >=5; b: single determination)
# T2 construct: GST-tagged truncated LRRK2 from Invitrogen (Cat # PV4874); GST; purchased Invitrogen PV4874
# T2 sequence (Q5S007 970-2527 limits assumed): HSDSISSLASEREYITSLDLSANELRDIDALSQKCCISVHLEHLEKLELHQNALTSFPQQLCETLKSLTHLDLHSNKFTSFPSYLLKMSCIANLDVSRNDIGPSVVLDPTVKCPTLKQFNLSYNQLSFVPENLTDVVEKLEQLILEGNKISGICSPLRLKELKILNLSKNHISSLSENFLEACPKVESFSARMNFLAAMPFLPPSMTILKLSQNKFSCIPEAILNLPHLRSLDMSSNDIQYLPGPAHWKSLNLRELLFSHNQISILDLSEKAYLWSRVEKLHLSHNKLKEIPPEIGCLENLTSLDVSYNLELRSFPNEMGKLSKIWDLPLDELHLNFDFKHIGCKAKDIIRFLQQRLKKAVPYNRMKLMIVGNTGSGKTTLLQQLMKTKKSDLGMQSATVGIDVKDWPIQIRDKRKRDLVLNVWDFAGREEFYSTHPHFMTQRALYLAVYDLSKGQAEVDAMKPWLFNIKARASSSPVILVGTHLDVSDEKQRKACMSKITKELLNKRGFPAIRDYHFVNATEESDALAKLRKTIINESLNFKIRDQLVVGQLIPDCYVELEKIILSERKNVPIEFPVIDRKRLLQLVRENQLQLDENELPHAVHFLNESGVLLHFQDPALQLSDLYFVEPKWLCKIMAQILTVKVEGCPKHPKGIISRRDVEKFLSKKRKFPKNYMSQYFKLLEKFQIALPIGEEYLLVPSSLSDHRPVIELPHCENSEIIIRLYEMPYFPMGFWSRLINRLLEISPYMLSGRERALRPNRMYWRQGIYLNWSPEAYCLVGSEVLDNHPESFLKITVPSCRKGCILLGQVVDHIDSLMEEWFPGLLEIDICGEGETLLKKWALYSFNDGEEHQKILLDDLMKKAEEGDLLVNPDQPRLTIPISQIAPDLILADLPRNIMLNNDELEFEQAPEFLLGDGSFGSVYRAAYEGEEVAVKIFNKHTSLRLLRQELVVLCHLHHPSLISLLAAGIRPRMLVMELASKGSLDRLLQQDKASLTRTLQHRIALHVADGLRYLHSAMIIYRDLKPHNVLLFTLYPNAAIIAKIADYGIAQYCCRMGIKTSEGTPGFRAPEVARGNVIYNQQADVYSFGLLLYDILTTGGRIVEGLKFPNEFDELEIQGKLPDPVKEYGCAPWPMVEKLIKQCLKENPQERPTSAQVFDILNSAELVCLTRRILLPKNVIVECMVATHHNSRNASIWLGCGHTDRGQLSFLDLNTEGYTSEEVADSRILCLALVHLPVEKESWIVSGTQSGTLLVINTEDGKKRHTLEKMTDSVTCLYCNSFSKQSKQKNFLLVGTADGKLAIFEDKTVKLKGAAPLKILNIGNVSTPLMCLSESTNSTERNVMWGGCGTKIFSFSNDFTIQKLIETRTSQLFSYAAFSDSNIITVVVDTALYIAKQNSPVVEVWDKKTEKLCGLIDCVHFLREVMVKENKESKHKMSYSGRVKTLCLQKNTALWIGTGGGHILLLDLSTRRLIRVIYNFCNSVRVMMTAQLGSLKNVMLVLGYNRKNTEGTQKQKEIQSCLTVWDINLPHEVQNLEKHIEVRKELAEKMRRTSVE
# [4] = target: T2, GST-tagged truncated LRRK2; experiment: LRRK2 Assay, Format 1 (Lantha Screen), WT; format: biochemical
# Method in brief: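 Kinase activity measured by TR-FRET: GST-tagged truncated LRRK2 (4 μg/mL working solution) reacted with fluorescein-labeled LRRKtide (ERM-based peptide) across a compound dose response for 2 h at room temperature. Reaction stopped with EDTA-containing detection buffer (20 mM Tris pH 7.6) holding 2 nM terbium anti-phospho-ERM antibody.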
# [5] = geometric mean of 2-4 determinations unless otherwise indicated
# [6] = Format 1, wild-type LRRK2, geometric mean of 2-4 determinations unless footnoted (a: ≥5 determinations; b: single determination; c: determined on trifluoroacetate salt)
# [7] = 100 nM LRRKtide, 50 μM ATP, 1.7 μg/mL LRRK2 enzyme, two hours at room temperature
# T1 sequence (Q5S007 970-2527 G2019S limits assumed): as the sequence (Q5S007 970-2527 limits assumed) above, with G1050S counted along it
SMILES,IC50 [1] [µM],IC50 [2] [µM],IC50 [3] [µM],"IC50 [4, 5] [µM]","IC50 [4, 6] [µM]","IC50 [4, 7] [µM]"
"C[C@@H]1C[C@H](n2c(Cc3cc(C4CC4)on3)nc3cnc4ccc(C#N)cc4c32)CCO1 [Example 145, 2-[(5-cyclopropyl-1,2-oxazol-3-yl)methyl]-1-[(2R,4R)-2-methyltetrahydro-2H-pyran-4-yl]-1H-imidazo[4,5-c]quinoline-8-carbonitrile]",0.0048,0.00733,0.00698,0.00478,,
"Cc1nc(Cc2nc3cnc4ccc(Cl)cc4c3n2[C@@H]2CCO[C@H](CC#N)C2)no1 (single isomer, unassigned; ent-1) [Example 135, [cis-4-{8-chloro-2-[(5-methyl-1,2,4-oxadiazol-3-yl)methyl]-1H-imidazo[4,5-c]quinolin-1-yl}tetrahydro-2H-pyran-2-yl]acetonitrile, ENT-1]",0.00365,0.0155,0.016,0.00378,,
"CC1(C)CC(n2c(Cc3cscn3)nc3cnc4ccc(F)cc4c32)CCO1 (centres unmarked) [Example 80, 1-(2,2-dimethyltetrahydro-2H-pyran-4-yl)-8-fluoro-2-(1,3-thiazol-4-ylmethyl)-1H-imidazo[4,5-c]quinoline, trifluoroacetate salt]",0.0395,,,,0.0521,
"Fc1ccc2ncc3nc(Cn4cc(C(F)(F)F)nn4)n(C4CCOCC4)c3c2c1 [Example 74, 8-fluoro-1-(tetrahydro-2H-pyran-4-yl)-2-{[4-(trifluoromethyl)-1H-1,2,3-triazol-1-yl]methyl}-1H-imidazo[4,5-c]quinoline, trifluoroacetate salt]",0.102,,,,0.112,
"Cc1nn2cc(Cc3nc4cnc5ccc(F)cc5c4n3C3CCOC(C)(C)C3)nc2s1 (centres unmarked) [Example 83, 1-(2,2-dimethyltetrahydro-2H-pyran-4-yl)-8-fluoro-2-[(2-methylimidazo[2,1-b][1,3,4]thiadiazol-6-yl)methyl]-1H-imidazo[4,5-c]quinoline, trifluoroacetate salt]",0.0212,,,,0.0254,
"C[C@H]1C[C@H](n2c(Cc3ccon3)nc3cnc4ccc(C#N)cc4c32)CCO1 [Example 24, 1-[(2S,4R)-2-methyltetrahydro-2H-pyran-4-yl]-2-(1,2-oxazol-3-ylmethyl)-1H-imidazo[4,5-c]quinoline-8-carbonitrile]",0.062,,,,0.072,
"Clc1cn2cc(Cc3nc4cnc5ccccc5c4n3C3CCOCC3)nc2s1 [Example 71, 2-[(2-chloroimidazo[2,1-b][1,3]thiazol-6-yl)methyl]-1-(tetrahydro-2H-pyran-4-yl)-1H-imidazo[4,5-c]quinoline, trifluoroacetate salt]",0.12,,,,0.106,
"c1ccc2c(c1)ncc1nc(Cc3cscn3)n(C3CCOCC3)c12 [Example 36, 1-(tetrahydro-2H-pyran-4-yl)-2-(1,3-thiazol-4-ylmethyl)-1H-imidazo[4,5-c]quinoline, formate salt]",0.0905,,,,0.0855,
"Cc1nc2cnc3ccccc3c2n1[C@H]1CCO[C@@H](CC#N)C1 (racemic) [Example 91, [cis-4-(2-methyl-1H-imidazo[4,5-c]quinolin-1-yl)tetrahydro-2H-pyran-2-yl]acetonitrile]",0.0122,,,,0.0187,
"C[C@@H]1C[C@H](n2c(Cc3ccon3)nc3cnc4cccnc4c32)CCO1 [Example 68, 1-[(2R,4R)-2-methyltetrahydro-2H-pyran-4-yl]-2-(1,2-oxazol-3-ylmethyl)-1H-imidazo[4,5-c][1,5]naphthyridine]",0.0192,,,,0.0236,
"CC[C@@H]1C[C@H](n2c(Cc3ccon3)nc3cnc4ccc(C#N)cc4c32)CCO1 [Example 67, 1-[(2R,4R)-2-ethyltetrahydro-2H-pyran-4-yl]-2-(1,2-oxazol-3-ylmethyl)-1H-imidazo[4,5-c]quinoline-8-carbonitrile]",0.004,,,,0.0058,
"c1ccc2c(c1)ncc1nc(Cn3cnnn3)n(C3CCOCC3)c12 [Example 35, 1-(tetrahydro-2H-pyran-4-yl)-2-(1H-tetrazol-1-ylmethyl)-1H-imidazo[4,5-c]quinoline]",0.211,,,,0.152,
"Fc1ccc2ncc3nc(Cc4ccon4)n(C4CCOCC4)c3c2c1 [Example 75, 8-fluoro-2-(1,2-oxazol-3-ylmethyl)-1-(tetrahydro-2H-pyran-4-yl)-1H-imidazo[4,5-c]quinoline, trifluoroacetate salt]",0.155,,,,0.13,
"F[C@H]1CC[C@@H](n2c(Cc3ccon3)nc3cnc4ccccc4c32)C1 [Example 16, 1-[(1R,3S)-3-fluorocyclopentyl]-2-(1,2-oxazol-3-ylmethyl)-1H-imidazo[4,5-c]quinoline]",0.184,,,,0.158,

# Second part, the compound after the results:
IC50 [1] [µM],IC50 [2] [µM],IC50 [3] [µM],"IC50 [4, 5] [µM]","IC50 [4, 6] [µM]","IC50 [4, 7] [µM]",SMILES
0.00917,0.00634,0.006,0.0144,,,"C[C@@H]1C[C@H](n2c(Cc3cc(C4CC4)on3)nc3cnc4ccc(Br)cc4c32)CCO1 [Example 172, 8-bromo-2-[(5-cyclopropyl-1,2-oxazol-3-yl)methyl]-1-[(2R,4R)-2-methyltetrahydro-2H-pyran-4-yl]-1H-imidazo[4,5-c]quinoline]"
0.00362,0.00672,0.0067,0.00514,,,"Cc1cn(Cc2nc3cnc4ccc(Br)cc4c3n2[C@@H]2CCO[C@H](C)C2)nn1 [Example 173, 8-bromo-1-[(2R,4R)-2-methyltetrahydro-2H-pyran-4-yl]-2-[(4-methyl-1H-1,2,3-triazol-1-yl)methyl]-1H-imidazo[4,5-c]quinoline]"
0.929,,,,,2.85,"COc1ccc2ncc3nc(Cc4noc(C)n4)n([C@H]4CCO[C@@H](C)C4)c3c2c1 [enantiomer of Example 87, 8-methoxy-2-[(5-methyl-1,2,4-oxadiazol-3-yl)methyl]-1-[(2S,4S)-2-methyltetrahydro-2H-pyran-4-yl]-1H-imidazo[4,5-c]quinoline]"
0.0473,,,,0.0538,,"CC1(C)CC(n2c(Cn3cc(C4CC4)nn3)nc3cnc4ccc(F)cc4c32)CCO1 (centres unmarked) [Example 79, 2-[(4-cyclopropyl-1H-1,2,3-triazol-1-yl)methyl]-1-(2,2-dimethyltetrahydro-2H-pyran-4-yl)-8-fluoro-1H-imidazo[4,5-c]quinoline, trifluoroacetate salt]"
0.153,,,,0.199,,"C[C@@H]1C[C@@H](n2c(Cc3ccon3)nc3cnc4ccc(C#N)cc4c32)CCO1 (racemic) [Example 23, 1-(trans-2-methyltetrahydro-2H-pyran-4-yl)-2-(1,2-oxazol-3-ylmethyl)-1H-imidazo[4,5-c]quinoline-8-carbonitrile]"
0.0056,,,,0.0076,,"C[C@H]1C[C@@H](n2c(Cc3cn4ncsc4n3)nc3cnc4ccc(F)cc4c32)CCO1 (racemic) [Example 86, 8-fluoro-2-(imidazo[2,1-b][1,3,4]thiadiazol-6-ylmethyl)-1-(cis-2-methyltetrahydro-2H-pyran-4-yl)-1H-imidazo[4,5-c]quinoline]"
0.118,,,,0.188,,"Cc1cn(Cc2nc3cnc4ccccc4c3n2[C@@H]2CC[C@H](F)C2)nn1 [Example 27, 1-[(1R,3S)-3-fluorocyclopentyl]-2-[(4-methyl-1H-1,2,3-triazol-1-yl)methyl]-1H-imidazo[4,5-c]quinoline, formate salt]"
0.0019,,,,0.0031,,"C[C@@H]1C[C@H](n2c(Cc3cscn3)nc3cnc4ccc(Cl)cc4c32)CCO1 [Example 53, 8-chloro-1-[(2R,4R)-2-methyltetrahydro-2H-pyran-4-yl]-2-(1,3-thiazol-4-ylmethyl)-1H-imidazo[4,5-c]quinoline]"
0.0027,,,,0.0041,,"C[C@@H]1C[C@H](n2c(Cc3ccon3)nc3cnc4ccc(Cl)cc4c32)CCO1 [Example 52, 8-chloro-1-[(2R,4R)-2-methyltetrahydro-2H-pyran-4-yl]-2-(1,2-oxazol-3-ylmethyl)-1H-imidazo[4,5-c]quinoline]"
0.0031,,,,0.0044,,"C[C@@H]1C[C@H](n2c(Cc3cn4ncsc4n3)nc3cnc4ccc(Cl)cc4c32)CCO1 [Example 8, 8-Chloro-2-(imidazo[2,1-b][1,3,4]thiadiazol-6-ylmethyl)-1-[(2R,4R)-2-methyltetrahydro-2H-pyran-4-yl]-1H-imidazo[4,5-c]quinoline]"
0.0082,,,,0.0168,,"Cc1cc(Cc2nc3cnc4ccc(Br)cc4c3n2[C@H]2CCO[C@@H](C)C2)no1 (racemic) [Example 58, 8-bromo-2-[(5-methyl-1,2-oxazol-3-yl)methyl]-1-(cis-2-methyltetrahydro-2H-pyran-4-yl)-1H-imidazo[4,5-c]quinoline]"
0.236,,,,,0.332,"C[C@H]1C[C@@H](n2c(Cc3ccon3)nc3cnc4ccc(F)cc4c32)CCO1 [enantiomer of Example 54, 8-fluoro-1-[(2S,4S)-2-methyltetrahydro-2H-pyran-4-yl]-2-(1,2-oxazol-3-ylmethyl)-1H-imidazo[4,5-c]quinoline]"
0.372,,,,,1.05,"COc1ccc2ncc3nc(Cn4cc(C)nn4)n([C@H]4CCO[C@@H](C)C4)c3c2c1 [enantiomer of Example 88, 8-methoxy-1-[(2S,4S)-2-methyltetrahydro-2H-pyran-4-yl]-2-[(4-methyl-1H-1,2,3-triazol-1-yl)methyl]-1H-imidazo[4,5-c]quinoline]"
